Data on one compound can be found in ChEMBL document CHEMBL5346924, “Optically activated MEK1/2 inhibitors (Opti-MEKi) as potential antimelanoma agents” (Eur J Med Chem, 2023).

Calls of active or inactive are those of the source. No cut-off for these calls is given here.

Series [1] in a line: Metabolic stability in human liver microsomes assessed as parent compound remaining measured after 1 hrs in the presence of NADPH regenerating system. The class given is ADME, Microsome. To be noted: read-out: Stability.
Series [2] addresses Serine/threonine-protein kinase B-raf (Homo sapiens) (UniProt P15056). Kind of series: Inhibition of recombinant human BRAF at 1 uM.
The nature of series [3]: Metabolic stability in human liver microsomes assessed as half-life in the presence of NADPH regenerating system. The series is classed as ADME, Microsome.
Series [4] concerns the target Fibroblast growth factor receptor 1 (Homo sapiens) (UniProt P11362). Kind of series: Inhibition of recombinant human FGFR1 at 1 uM.
The nature of series [5]: Photoactivation of the compound assessed as photocleavage in the presence of 365 nm UV irradiation by HPLC based LC-MS analysis.
The test system of series [6] is Serine/threonine-protein kinase B-raf (Homo sapiens), P15056 [V600E]. Kind of series: Inhibition of recombinant human BRAF V600E mutant at 1 uM.
Series [7] deals with A-375. Kind of series: Inhibition of MEK/ERK/RSK signaling in human A-375 cells assessed as inhibition of RSK phosphorylation at 5 nM in the presence of 365 nm light irradiation for 30 sec to 5 min by Western blot analysis. The series is classed as cell-based.
In series [8] the target is CYP2D6 (Homo sapiens, UniProt P10635). Kind of series: Inhibition of CYP2D6 in human microsomes at 10 uM in the presence of NADPH relative to control. The series is classed as ADME, Microsome.
The subject of series [9] is A-375. Kind of series: Antiproliferative activity against human A-375 cells harboring BRAF V600E mutant assessed as cell growth inhibition preincubated with compound for 1 hrs followed by UV irradiation for 1 min and measured 72 hrs post compound treatment by CellTiter-Glo luminescent assay. The series is classed as functional. As to conditions: A-375, light or radiation study.

Series [10] concerns the target Dual specificity mitogen-activated protein kinase kinase 2 (Homo sapiens) (UniProt P36507). Kind of series: Inhibition of recombinant human MEK2 at 1 uM.
Series [11] is described as follows: Stability in human blood plasma assessed as half-life. The series is classed as ADME, cell-free.
In series [12] the test system is A-375. Kind of series: Inhibition of MEK/ERK/RSK signaling in human A-375 cells at 5 nM in the absence of light irradiation by Western blot analysis. The class given is cell-based.
Series [13] has as its system HCT-116. Kind of series: Antiproliferative activity against human HCT-116 cells harboring KRAS G13D mutant assessed as cell growth inhibition preincubated with compound for 1 hrs followed by UV irradiation for 5 mins and measured 72 hrs post compound treatment by CellTiter-Glo luminescent assay. The series is classed as functional. As to conditions: HCT-116, light or radiation study.

Series [14] in a line: Metabolic stability in human liver microsomes assessed as intrinsic clearance in the presence of NADPH regenerating system. The class given is ADME, Microsome. As to conditions: read-out: CLH.

Serine/threonine-protein kinase B-raf (Homo sapiens), sequence (P15056 whole entry): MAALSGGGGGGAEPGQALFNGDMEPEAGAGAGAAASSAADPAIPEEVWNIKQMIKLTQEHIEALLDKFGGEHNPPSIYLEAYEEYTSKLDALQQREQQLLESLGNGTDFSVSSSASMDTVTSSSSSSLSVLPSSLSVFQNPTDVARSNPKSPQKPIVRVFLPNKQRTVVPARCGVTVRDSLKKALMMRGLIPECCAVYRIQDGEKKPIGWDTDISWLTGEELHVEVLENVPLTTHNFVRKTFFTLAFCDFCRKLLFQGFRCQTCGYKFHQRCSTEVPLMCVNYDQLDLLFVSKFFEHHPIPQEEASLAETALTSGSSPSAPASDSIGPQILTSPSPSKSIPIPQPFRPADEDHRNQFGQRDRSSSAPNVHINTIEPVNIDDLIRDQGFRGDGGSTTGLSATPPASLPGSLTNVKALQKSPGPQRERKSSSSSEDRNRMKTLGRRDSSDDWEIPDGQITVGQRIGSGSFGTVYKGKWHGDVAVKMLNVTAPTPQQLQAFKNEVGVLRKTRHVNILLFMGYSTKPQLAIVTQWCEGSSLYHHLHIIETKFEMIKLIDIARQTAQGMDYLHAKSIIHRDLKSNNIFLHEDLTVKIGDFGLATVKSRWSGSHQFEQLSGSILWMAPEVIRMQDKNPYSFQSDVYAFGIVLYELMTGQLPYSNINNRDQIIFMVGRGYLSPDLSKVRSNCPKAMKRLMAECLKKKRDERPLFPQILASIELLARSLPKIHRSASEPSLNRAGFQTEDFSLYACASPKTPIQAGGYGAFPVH
Dual specificity mitogen-activated protein kinase kinase 2 (Homo sapiens), sequence (P36507 whole entry): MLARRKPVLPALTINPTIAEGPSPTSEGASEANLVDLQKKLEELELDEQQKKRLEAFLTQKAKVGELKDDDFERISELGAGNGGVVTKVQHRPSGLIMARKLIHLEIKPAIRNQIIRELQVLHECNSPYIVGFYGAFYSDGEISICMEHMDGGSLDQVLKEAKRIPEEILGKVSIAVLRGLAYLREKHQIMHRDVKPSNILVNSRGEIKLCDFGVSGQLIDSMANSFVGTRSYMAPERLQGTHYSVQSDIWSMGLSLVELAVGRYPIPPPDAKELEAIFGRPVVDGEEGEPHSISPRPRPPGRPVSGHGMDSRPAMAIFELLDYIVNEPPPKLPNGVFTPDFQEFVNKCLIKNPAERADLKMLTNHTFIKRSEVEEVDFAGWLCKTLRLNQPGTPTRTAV
CYP2D6, sequence (P10635 whole entry): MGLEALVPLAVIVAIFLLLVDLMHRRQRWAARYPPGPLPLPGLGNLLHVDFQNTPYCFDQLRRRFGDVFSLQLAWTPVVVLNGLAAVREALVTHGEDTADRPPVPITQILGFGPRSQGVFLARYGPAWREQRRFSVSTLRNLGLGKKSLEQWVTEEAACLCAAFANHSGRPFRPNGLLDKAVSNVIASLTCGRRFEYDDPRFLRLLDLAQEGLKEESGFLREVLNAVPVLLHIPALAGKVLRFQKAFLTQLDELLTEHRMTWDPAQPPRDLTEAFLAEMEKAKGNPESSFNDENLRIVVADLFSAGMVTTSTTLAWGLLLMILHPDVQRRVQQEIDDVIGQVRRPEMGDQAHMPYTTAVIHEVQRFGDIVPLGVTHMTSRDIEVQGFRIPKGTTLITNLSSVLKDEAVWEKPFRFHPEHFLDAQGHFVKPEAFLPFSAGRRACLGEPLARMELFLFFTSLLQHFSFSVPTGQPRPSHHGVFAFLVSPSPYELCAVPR
Serine/threonine-protein kinase B-raf (Homo sapiens), P15056 [V600E], sequence (P15056 whole entry V600E): as the sequence (P15056 whole entry) above, with V600E counted along it
Fibroblast growth factor receptor 1 (Homo sapiens), sequence (P11362 22-822 limits assumed): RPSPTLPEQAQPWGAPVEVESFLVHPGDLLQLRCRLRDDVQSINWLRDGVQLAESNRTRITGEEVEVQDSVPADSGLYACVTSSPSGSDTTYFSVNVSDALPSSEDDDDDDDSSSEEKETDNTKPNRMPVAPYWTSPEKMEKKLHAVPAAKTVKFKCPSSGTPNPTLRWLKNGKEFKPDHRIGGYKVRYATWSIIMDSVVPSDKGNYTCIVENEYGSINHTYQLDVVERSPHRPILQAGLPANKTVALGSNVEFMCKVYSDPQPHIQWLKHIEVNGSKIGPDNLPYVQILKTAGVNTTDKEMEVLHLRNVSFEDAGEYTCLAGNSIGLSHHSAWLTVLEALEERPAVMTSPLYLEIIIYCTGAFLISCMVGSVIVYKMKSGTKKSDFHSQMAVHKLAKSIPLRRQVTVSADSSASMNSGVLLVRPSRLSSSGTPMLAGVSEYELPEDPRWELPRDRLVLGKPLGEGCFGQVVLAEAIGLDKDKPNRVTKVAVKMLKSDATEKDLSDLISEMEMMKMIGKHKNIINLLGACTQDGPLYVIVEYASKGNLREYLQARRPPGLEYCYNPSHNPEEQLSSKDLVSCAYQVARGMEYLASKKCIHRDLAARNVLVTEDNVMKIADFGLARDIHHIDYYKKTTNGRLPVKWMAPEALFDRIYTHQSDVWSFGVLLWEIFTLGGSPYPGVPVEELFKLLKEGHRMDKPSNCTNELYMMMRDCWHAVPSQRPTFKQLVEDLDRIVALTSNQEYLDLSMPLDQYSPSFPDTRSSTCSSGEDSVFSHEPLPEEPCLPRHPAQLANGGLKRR

Take `COc1cc(C(C)O/C(=N\OC[C@H](O)CO)c2ccc(F)c(F)c2Nc2ccc(I)cc2F)c([N+](=O)[O-])cc1OC` (some centres undefined): the remaining at 1 h in series [1] turned out to be 13.6%. Also, the inhibition result in series [2], in [4], in series [6], in series [10] and in series [12] was “inactive” throughout. The half-life is 24.2 min in series [3] and greater than 289 min in series [11]. Further, in [5], the Drug metabolism result was “Metabolite_Detected”. The inhibition entry in series [7] was “Active”. For the same compound, the inhibition at 10 µM in [8] worked out at 21.5%. The GI50 in series [9] stood at 6.29 nM; in series [13] it was 60 nM. In addition, the CLint scaled in series [14] is 51.4 mL/min/kg.
